From patent US20070073039A1, “Peptides that inhibit viral infections” (priority 2005, published 2007)
Like-named read-outs stand apart in the source and are kept apart here.

Columns and labels:
HCV [1] = test: HCV focus reduction assay; format: cell-based, Hepatitis C virus (JFH-1)
Method: To identify peptides that display antiviral activity against HCV infection, the peptide library was screened by an HCV focus reduction assay. The peptides were constituted in 100% DMSO at a final concentration 10 mg/mL, and stored in −20° C. The peptide stock solution was diluted 1:200 to a final concentration approximately 20 μM in complete DMEM growth medium containing 50 focus forming units (ffu) of HCV. The virus-peptide mixture was transferred to Huh-7.5.1 cells at a density of 8000 cells per well in a 96-well plate. After adsorption for 4 hours at 37° C., the inoculum was removed. The cells were washed 2 times, overlaid with 120 μL fresh growth medium and incubated at 37° C. After 3 days of culture, the cells were fixed with paraformaldehyde and immunostained with antibody against HCV nonstructural protein NS5A. The numbers of HCV foci were counted under fluorescent microscopy and the result is expressed as percentage (%) of mock with no peptide treatment but containing solvent 0.5% DMSO.
To determine whether the antiviral activity of peptide 1 is dependent on its primary amino acid sequence, four derivative peptides from peptide 1 were synthesized to a purity >95%. The four derivatives having the same composition of amino acids included (1) the reversed the sequence of peptide 1 (also called retro-peptide); (2) scrambled hydrophobic amino acids; (3) scrambled hydrophilic amino acids; and (4) a derivative in which the aspartic acid residues (D) were replaced with proline residues (P). The antiviral activity of the peptides was examined by HCV focus reduction assay at three peptide concentrations: 18 μM, 6 μM and 2 μM, as described above.

Dengue-2 [2] = test: Dengue-2 infection of Vero cells, Enzyme-linked Immunosorbent Assay; format: cell-based; conditions: for Inhibition of Dengue Infection, α-Capsid 9A7 / Inhibition of Dengue Infection, α-DEN ENV: Vero cells, 5 days
Method: Enzyme-linked Immunosorbent Assay. Vero cells (80,000 cells/well/ml) were seeded for 24 h pre-infection in 24-well plates. Cells were exposed to Dengue-2 (derived from Vero cells) in the presence of increasing concentration of peptide (or DMSO as control). Viruses and peptide were not removed (cells were not washed) throughout the incubation. Infection was analyzed after 5 days using ELISA that measured the amounts of Dengue-2 capsid released in the supernatant of infected Vero cells.

Dengue-2 [3] = test: Dengue-2 infection of Vero cells, Intracellular FACS Assay; format: cell-based; conditions: 20 μM
Method: Intracellular FACS Assay: Vero cells were seeded for 24 h pre-infection in 6-well plates. Cells were exposed to Dengue-2 in the presence of increasing concentrations of peptide (or DMSO as control). Viruses and peptide were washed away 2 h post-infection. Cells were taken for intracellular staining 3 days post-infection. Cells were stained with appropriate isotype control, Dengue Env, Dengue capsid or tubulin antibodies. Cells were analyzed by FACS.

Dengue-2 [4] = test: Dengue-2 infection of Vero cells, Enzyme-linked Immunosorbent Assay; format: cell-based; conditions: 1.25 μM, 5 days
HCV [5] = test: Intracellular HCV RNA by real time RT-QPCR after infection of Huh-7.5.1 cells with and without peptide; format: cell-based, Hepatitis C virus (JFH-1)
Method: To accurately quantify the inhibitory effect of the selected peptides on HCV infection, intracellular HCV RNA was measured after infection by real time RT-QPCR with and without peptide treatment. The peptide stock solution was diluted 1:100 and mixed with equal volume of viral supernatant (propagated from day 18 virus preparation post transfection) to a final concentration approximately 20 μM. The virus with peptide or 0.5% DMSO solvent control was then used to infect Huh-7.5.1 cells at a multiplicity of infection (MOI) of 0.1. After an adsorption for 4 hours at 37° C., the inoculum was removed. The cells were washed 2 times, overlaid with 120 μL fresh growth medium and incubated at 37° C. At the indicated time points, total cellular RNA was isolated by the guanidine thiocyanate method. The HCV RNA transcript level was measured by real time RT-QPCR with the primers 5′—
normalized to cellular GAPDH levels.
To define the antiviral action of peptide #1 (SEQ ID NO:43), the antiviral activity of a series of N-terminal and C-terminal truncations of peptide 1 was analyzed using the focus reduction assay and by measuring the reduction in intracellular HCV RNA as described.

MTT cytotoxicity assay = format: cell-based; conditions: human, hepatocyte cell lines, read-out: LD50 (MTT cytotoxicity)
Method: Peptide cytotoxicity was measured by MTT cytotoxicity assay based on the protocol provided in the ATCC MTT assay kit (Cat #30-1010K). In brief, 5000-10,000 cells were seeded per well in a 96 well plate. Following overnight growth, 100 μL fresh medium plus 20 μL of 2-fold serially diluted peptide was added. Media without peptides was added to at least 3 wells as untreated controls. The cells were then incubated for 72 hours at 37° C., 5% CO2. After this incubation, 1/10 volume of MTT solution ([…] in PBS) was added to each well, and the cells were returned to the incubator. Two hours later, the medium was removed, 150 μL DMSO was added to dissolve the purple precipitate formazan, and the plate was shaken at 150 rpm for 10 minutes. Absorbance at 570 nm less background at 670 nm is a reliable measure of […]. Cytotoxicity (LD50) of individual peptides was defined as the peptide concentration that caused 50% cell death.

[6] = Serum stability of L- and D-type peptides (10% FBS, 37° C., antiviral readout); format: in vitro ADME
Description: Peptides composed of L-amino acids are susceptible to proteolysis, which could shorten their half-life and, thus, their biological activity. To examine this possibility and to determine if specific peptide-viral protein interactions mediate antiviral activity, peptide 1 was synthesized using all D-amino acids, purified to >95% homogeneity, and its antiviral activity and serum stability were compared with a similarly pure preparation of the L-type version of peptide #1. Both L- and D-type peptides were diluted 1:100 in complete growth medium (10% FBS) and mixed with an equal volume of viral supernatant.
In addition, to compare the serum stability of the L- and D-type peptides, the diluted peptide was incubated at 37° C. for 1 hour, 2 hours and 4 hours before mixing with viral supernatant. The virus-peptide mixture was then used to infect Huh-7.5.1 cells (MOI=0.1). After adsorption for 4 hours at 37° C., the virus-peptide inoculum was removed. The cells were washed 2 times, overlaid with 120 μL fresh growth medium and incubated at 37° C. for 3 days. Cells were lysed and subjected to RNA analysis. The HCV RNA transcript level was measured by real time RT-QPCR and normalized to cellular GAPDH levels. […] Thus, in addition to low immunogenicity and possible oral bioavailability, peptides composed of D-amino acids have the potential therapeutic advantage of enhanced serum stability.

HCV [7] = test: Median effective concentration (EC50) by intracellular HCV RNA RT-QPCR; format: cell-based, Hepatitis C virus (JFH-1); conditions: FIG. 12B-C; Huh-7.5.1 cells, MOI 0.1; 3 days; read-out: EC50 of the L- and D-forms of peptide 1
Method: (§1) To determine the median effective concentration (EC50) of peptide #1, peptide stock solution (3.6 mM in DMSO) was serially 2-fold diluted in DMSO. An aliquot of peptide from each dilution was then diluted 1:100 in complete growth medium and mixed with equal volume of virus supernatant. The virus-peptide mixture was then used to infect Huh-7.5.1 cells (MOI=0.1). After adsorption for 4 hours at 37° C., the virus-peptide inoculum was removed. The cells were washed 2 times, overlaid with 120 μL fresh growth medium and incubated at 37° C. for 3 days. Cells were lysed and subjected to RNA analysis. The HCV RNA transcript level was measured by real time RT-QPCR and normalized to cellular GAPDH levels. The inhibition of HCV infection was calculated by comparing the intracellular HCV RNA transcript between the peptide treatment and solvent control.
as §1, with “(EC50) of the L- and D-form” for “(EC50)”, “serially diluted” for “serially”, “2-fold” for “2-fold diluted”

HCV [8] = test: Binding/attachment/uptake of HCV RNA by Huh-7.5.1 cells; format: cell-based, Hepatitis C virus (JFH-1); conditions: 18 μM; 4 hours at 37° C.; cell-associated HCV RNA
Method: To define the mechanism of antiviral activity of peptide #1, its ability to prevent the binding/attachment/uptake by cells of viral RNA in an infectious inoculum cells was examined. Huh-7.5.1 cells were seeded at 8000 cells per well in a 96-well plate. Sixteen hours later, the cells were incubated with HCV at MOI=0.1 in the presence or absence of peptide at a concentration of 18 μM. After adsorption for 4 hours at 37° C., the virus-peptide inoculum was removed. The cells were washed 2 times, lysed and subjected to RNA analysis. The HCV RNA transcript level was measured by real time quantitative polymerase chain reaction (RT-QPCR) assay and normalized to cellular GAPDH levels. Inhibitory activity was quantified by comparing the amount of cell-associated HCV RNA in cells exposed to the virus-peptide inocula versus the virus-DMSO control.

[9] = Preliminary in vivo toxicity in mice
Method: As a preliminary measurement of the in vivo cytotoxicity of the peptides 1, 2 and 3 (see Table 4) a group of three mice (BALB/c mice, 7 weeks old, about 23 g) were each injected with 92 μg L-type peptide 1 ( ˜4 mg/kg) in 200 μL PBS (spun 14,000 rpm for 3 minutes before injection). In the control group, each of three mice was given 200 μL PBS containing 5% DMSO. The mice were monitored for acute toxicity during the first 3 hours after injection.
No change in appearance, activity or behavior was observed. The mice were then weighed on days 0, 3, 5, 7 and 10. Peptide-injected mice gained weight at the same rate as the controls.

SWLRDIWDWICEVL [^C-14mer]
Focus Reduction (72 h) (HCV [1]; 72 h, working concentration 18.4-27.5 μM per peptide, Mock 51): 0 | Inhibition of Dengue Infection, α-Capsid 9A7 (Dengue-2 [2]; 1.25 μM): 11.4% | Inhibition of Dengue Infection, α-Capsid 9A7 (Dengue-2 [2]; 5 μM): 22.7% | Inhibition of Dengue Infection, α-DEN ENV (Dengue-2 [2]; 5 μM): 29.65% | Inhibition of Dengue Infection, α-Capsid 9A7 (Dengue-2 [2]; 20 μM): 98.3% | Inhibition of Dengue Infection, α-DEN ENV (Dengue-2 [2]; 20 μM): 97.8% | Inhibition of Dengue viral infection as detected by ELISA (Dengue-2 [2]; FIG. 17, 20 μM): ~100% | Inhibition of Dengue viral infection as detected by FACS (Dengue-2 [3]; FIG. 18): ~100% | Inhibition of Dengue Infection, α-DEN ENV (Dengue-2 [4]): 0% | Fold Inhibition on HCV RNA (24 h) (HCV [5]; 24 h, working concentration 18.4-27.5 μM per peptide): 20274.7 fold | Fold Inhibition on HCV RNA (72 h) (HCV [5]; 72 h, working concentration 18.4-27.5 μM per peptide): 237172.4 fold

CC[C@@H](C)[C@@H](NC(=O)[C@@H](CC(=O)O)NC(=O)[C@@H](CCCNC(=N)N)NC(=O)[C@@H](CC(C)C)NC(=O)[C@@H](Cc1c[nH]c2ccccc12)NC(=O)[C@H](N)CO)C(=O)N[C@H](Cc1c[nH]c2ccccc12)C(=O)N[C@H](CC(=O)O)C(=O)N[C@H](Cc1c[nH]c2ccccc12)C(=O)N[C@@H](C(=O)N[C@H](CS)C(=O)N[C@H](CCC(=O)O)C(=O)N[C@@H](C(=O)N[C@H](CC(C)C)C(=O)N[C@H](CO)C(=O)N[C@H](CC(=O)O)C(=O)N[C@H](Cc1ccccc1)C(=O)N[C@H](CCCCN)C(=O)O)C(C)C)[C@H](C)CC [D-2022 peptide]
CC50 at 72 h (MTT cytotoxicity assay; with FBS): 36.8 µM | CC50 at 72 h (MTT cytotoxicity assay; without FBS): 3.7 µM | % of Dead cells PI (Dengue-2 [3]; propidium iodide staining, Vero cells 3 days post-infection): 3.83% | Time entirely stable in 10% FBS at 37° C. [6]: at least 4 hours | EC50 (HCV [7]): ~1 µM

CTMLVCGDDLVVICESAG [Peptide 2]
Inhibition of HCV infection (HCV [1]; cell culture model of HCV infection): strongly inhibit HCV infection | Fold Inhibition (HCV [1]; inhibition of HCV infection, peptide approximately 20 μM, Huh-7.5.1 cells, 3 days): 100.0 fold | % of Mock (HCV [1]; number of HCV foci as % of mock (0.5% DMSO), peptide approximately 20 μM, Huh-7.5.1 cells, 3 days): 1.0% | Fold inhibition of HCV infection (HCV [1]; peptide library screen, approximately 20 μM): more than ten-fold | Blocking of viral binding/attachment/uptake (HCV [8]): significantly blocks viral binding/attachment/uptake | In vivo toxicity observation ([9]; 92 μg ( ˜4 mg/kg) in 200 μL PBS, acute toxicity first 3 hours, weight to day 10): Peptides 1, 2 and 3 are Nontoxic in C57BL/6 Mice | Weight(g) (d.0) ([9]; day 0, ˜4 mg/kg injected): 25.3 g | Weight(g) (d.3) ([9]; day 3): 25.6 g | Weight(g) (d.5) ([9]; day 5): 25.9 g | Weight(g) (d.7) ([9]; day 7): 25.9 g | Weight(g) (d.10) ([9]; day 10): 25.6 g | HCV RNA fold inhibition 24 h 25 μM (HCV [5]; 24 h, 25 μM, Huh-7.5.1 cells, MOI 0.1, normalized to GAPDH): 86 fold | HCV RNA fold inhibition 72 h 25 μM (HCV [5]; 72 h, 25 μM, Huh-7.5.1 cells, MOI 0.1, normalized to GAPDH): 40 fold
